In the assay the target is T1, TcyK (Listeria monocytogenes, UniProt A0A0H3GMT4).
T1 construct: gene LMRG_01494; residues 38-286, without membrane-anchoring domain; N-terminal His-tag (pET-19b, cleavage not mentioned); codon-optimised, E. coli BL21-Gold(DE3)
Briefly: isothermal titration calorimetry. It is filed as binding.

A word on the Kd: it is the concentration at which binding is half-saturated. High values mean weaker binding, low ones tighter binding.

T1 sequence (A0A0H3GMT4 entry or part of it): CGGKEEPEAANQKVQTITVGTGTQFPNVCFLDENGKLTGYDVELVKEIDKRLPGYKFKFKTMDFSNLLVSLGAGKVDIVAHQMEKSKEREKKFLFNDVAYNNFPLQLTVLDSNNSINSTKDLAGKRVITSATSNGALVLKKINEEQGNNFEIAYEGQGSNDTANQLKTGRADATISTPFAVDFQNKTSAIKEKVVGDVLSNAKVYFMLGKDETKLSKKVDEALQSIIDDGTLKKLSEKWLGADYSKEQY

Consider `N[C@@H](CSSC[C@H](N)C(=O)O)C(=O)O` [CSSC, cystine], for which the dissociation constant Kd is ~13 µM. Next, `N[C@@H](CS)C(=O)O` [Cys, L-cysteine]: ~66.7 µM.

Values taken from publication PMC9239247, “Listeria monocytogenes TcyKLMN Cystine/Cysteine Transporter Facilitates Glutathione Synthesis and Virulence Gene Expression” (mBio, 2022).
